Data published in patent US10919888B2, “Benzyl amine-containing heterocyclic compounds and compositions useful against mycobacterial infection” (priority 2015, dated 2021).
Values belong to the compound of their own block, whether it stands above or below them.

What was measured:
[1] = tested on: mice; conditions: mouse
[2] = tested on: Mycobacterium avium 101; assay: In vivo efficacy in mice infected with Mycobacterium avium 101 (FIG. 2); conditions: dosed orally with 25 mg/kg and 100 mg/kg
Description: Panel A is the log 10 colony forming units (CFU) drop in bacteria in the lungs when treated with ND-10885 (at 25 and 100 mg/kg), rifampicin (RMP, 20 mg/kg) and a combination of ND-10885 (100 mg/kg) and rifampicin (20 mg/kg). Panel B is the log 10 colony forming units (CFU) drop in bacteria in the spleen when treated with ND-10885 (at 25 and 100 mg/kg), rifampicin (RMP, 20 mg/kg) and a combination of ND-10885 (100 mg/kg) and rifampicin (20 mg/kg). Panel C is the log 10 colony forming units (CFU) drop in bacteria in the liver when treated with ND-10885 (at 25 and 100 mg/kg), rifampicin (RMP, 20 mg/kg) and a combination of ND-10885 (100 mg/kg) and rifampicin (20 mg/kg).

[3] = in vivo; conditions: mouse, MTD (maximum tolerated dose)
[4] = tested on: M. avium; assay: Murine MAC infection model, two week infection in Balb/c mice; format: in vivo, Mycobacterium avium; conditions: two week infection experiment, control
Description: AND CHEMOTHERAPY, 1995, 39(8), 1647-1654 for review of MAC infection model and Antimicrob Agents Chemother. 1992, 36(11):2413-7 for a typical experiment (done with clarithromycin).

melting point: 186 to 187 °C
SMILES: Cc1ccn2c(C(=O)NCc3ccc(S(F)(F)(F)(F)F)cc3)c(C)nc2c1

melting point: 191 to 192 °C
SMILES: CCc1nc2ccc(Cl)cn2c1C(=O)NCc1ccc(S(F)(F)(F)(F)F)cc1

melting point: 176 to 177 °C
SMILES: Cc1ccc2nc(C)c(C(=O)NCc3ccc(S(F)(F)(F)(F)F)cc3)n2c1

SMILES: Cc1ccn2c(C(=O)NCc3ccc(N4CCOCC4)cc3)c(C)nc2c1 [ND-10823]
dose limiting toxicity / in vivo toxicity [1]: 100 mg/kg

SMILES: Cc1ccn2c(C(=O)NCc3ccc4c(c3)CCO4)c(C)nc2c1 [ND-10885]
in vivo efficacy (log 10 CFU drop in lungs, spleen, liver) [2]: validate the in vivo efficacy

SMILES: Cc1ccn2c(C(=O)NCc3ccc(N4CCCN(c5ccc(C(F)(F)F)cc5)CC4)c(F)c3)c(C)nc2c1 [ND-11598]
MTD [3]: ≥ 250 mg/kg

SMILES: CCc1nc2ccc(Cl)cn2c1C(=O)NCc1ccc(N2CCSCC2)c(F)c1 [ND-11622]
MTD [3]: ≥ 250 mg/kg

SMILES: CO[C@H]1/C=C/O[C@@]2(C)Oc3c(C)c(O)c4c(O)c(c(/C=N/N5CCN(C)CC5)c(O)c4c3C2=O)NC(=O)/C(C)=C\C=C\[C@H](C)[C@H](O)[C@@H](C)[C@@H](O)[C@@H](C)[C@H](OC(C)=O)[C@@H]1C [rifampicin]
log 10 CFU drop in the amount of M. avium in the lungs [4]: 1.8 log 10 CFU
